Test results published in paper PMC11901902, “Design, Synthesis, and Cytotoxicity Evaluation of Novel Indolin-2-One Based Molecules on Hepatocellular Carcinoma HepG2 Cells as Protein Kinase Inhibitors” (Molecules, 2025).

Assays:
[1] = test system: Fas-L; experiment: ELISA of Fas-L in treated HepG-2 cells; type: cell-based, human; conditions: for increase of Fas-L expression compared to untreated control: HepG-2, compound at its IC50, 24 h; for Concentration of Fas L: HepG-2, compound at its IC50, ± S.E.M, control 15.33±1.71
Description: (§1) HepG2 cells were cultured in RPMI 10% + 5%FBS penicillin/streptomycin and were incubated at a humidity 5% CO2 and maintained at 37 °C. […] HepG2 cells were cultured as a monolayer in T-25 flasks and were seeded to attain 30% confluency prior to treatment. The main 100 mM stock dissolved in DMSO was diluted with the cell culture medium in order to reach the previously determined IC50 concentration of each of the three preparations. After that, HepG2 cells were collected via trypsinization and centrifuged at 10,000 rpm. The pellet was then rinsed with PBS and lysed in RIPA lysis buffer at 4 °C for 45 min, then centrifuged at 14,000 rpm for 20 min to remove the cellular debris. Lysates were then collected and stored at […] for protein determination. The levels of p53, p21, Fas-L, Bax, Bcl-2, and caspase 3/7 were assessed using the human P53 ELISA kit (Catalog No. ABIN6962151), P21 ELISA kit (Catalog No. ABIN6966175), Human Apoptosis Ligand (FAS-L), Bax ELISA kit, Human Factor-Related. Bcl-2 ELISA kit ELISA kit, and caspase3/7 ELISA kit (Elabscience Biotechnology Co., Wuhan, Hubei, China). The procedure of the used kits was done according to the manufacturer’s instructions. Briefly, equal amounts of cell lysates were loaded and then probed with specific antibodies. The samples were measured at 450 nm in ROBONEK P2000 ELISA reader. The analysis was confirmed with three different sets of extracts. All experiments were done in triplicate (Tables S6–S9).

[2] = biological target: T1, CDK-4 (Homo sapiens, UniProt P11802); experiment: Kinase-Glo Plus luminescence kinase inhibition assay, CDK-4; type: biochemical; conditions: 10 µM ATP, 30 °C, 40 min; mean ± SEM
T1 construct: purchased BPS Bioscience 79674
Description: (§2) The enzyme inhibition assay for the tested molecules was performed at BPS Bioscience Corporation, San Diego, CA, USA. The following materials served as the enzyme sources, Poly (Glu, Tyr) sodium salt (4:1, Glu:Tyr) (Sigma#P7244) served as the standardized substrate, and the Kinase-Glo Plus Luminescence kinase assay kit (Promega # V3772) was used. […] Glo Plus luminescence kinase assay kits. The assays were performed using Kinase-Glo Plus luminescence (Promega Corporation, Madison, WI, USA).
(§3) The tested molecules 9, 20, and indurbin were diluted to 100 µL in DMSO (10%), and 5 µL of the solution was added to a 50-µL enzyme reaction until the final concentration of DMSO was 1% in all of reactions. The enzymatic reactions were conducted at 30 °C for 40 min. The reaction mixture contained enzyme substrate and respective kinases. After the enzymatic reaction, 50 µL of enzyme-Glo Plus luminescence […] assay solution (Promega) was added to each reaction, and the plate was incubated for 5 min at room temperature. The luminescence signal was measured using a BioTek Synergy 2 microplate reader. The luminescence data were analyzed using the computer software GraphPad Prism. The difference between luminescence intensities in the absence of enzyme (Lut) and in the presence of enzyme (Luc) was defined as 100% activity (Lut − Luc). […] The IC50 value was determined using GraphPad Prism software. […]
(§4) Glo Plus luminescence kinase assay kits were used in these assays. […] The assay measures kinase activity by quantitating the amount of ATP remaining in the solution following kinase reaction. […] After the enzymatic reaction, 50 µL of Kinase-Glo Plus Luminescence kinase assay solution (Promega) was added to each reaction, and the plate was incubated for 5 min at room temperature. The luminescence signal was measured using a BioTek Synergy 2 microplate reader. […] The luminescence data were analyzed using the Graphpad Prism software.

[3] = test system: p53; experiment: ELISA of p53 in treated HepG-2 cells; type: cell-based, human; conditions: for upregulation of p53 expression compared to untreated cells: HepG-2, compound at its IC50, 24 h; for Concentration of p53: HepG-2, compound at its IC50, ± S.E.M, control 48.29±3.87
Description: as §1

[4] = biological target: T2, EGFR (Homo sapiens, UniProt P00533); experiment: Kinase-Glo Plus luminescence kinase inhibition assay, EGFR; type: biochemical; conditions: 10 µM ATP, 30 °C, 40 min; mean ± SEM
T2 construct: purchased BPS Bioscience 40721
Description: as §2, §3, §4

[5] = test system: Bcl-2; experiment: ELISA of Bcl-2 in treated HepG-2 cells; type: cell-based, human; conditions: HepG-2, compound at its IC50; ± S.E.M; control 360.90±31.71
Description: as §1, with “The analysis was confirmed with three different sets of extracts. All experiments were done in triplicate (Tables S6–S9).” left out

[6] = test system: HepG-2 cells; experiment: DNA flow cytometry cell cycle analysis; type: cell-based, human; conditions: HepG-2, compound at its IC50, 24 h
Description: The HepG-2 cells were then collected by trypsinization, washed with PBS, and fixed. After that, treated cells were stained using the Cycle Test Plus DNA Reagent Kit (BD Biosciences, San Jose, CA, USA) according to the manufacturer’s instructions. The percentage of cell cycle distribution was calculated using CELLQUEST software 5.1 (Becton Dickinson Immuno-cytometry Systems, San Jose, CA, USA) (Table S4).

[7] = test system: Bax; experiment: ELISA of Bax in treated HepG-2 cells; type: cell-based, human; conditions: HepG-2, compound at its IC50; ± S.E.M; control 18.93±11.71
Description: as §1, with “The analysis was confirmed with three different sets of extracts. All experiments were done in triplicate (Tables S6–S9).” left out

[8] = biological target: T3, CDK-2 (Homo sapiens, UniProt P24941); experiment: Kinase-Glo Plus luminescence kinase inhibition assay, CDK-2; type: biochemical; conditions: for IC50: 10 µM ATP, 30 °C, 40 min, mean ± SEM
T3 construct: purchased BPS Bioscience 41101
Description: as §2
The tested molecules 9, 20, and indurbin were diluted to 100 µL in DMSO (10%), and 5 µL of the solution was added to a 50-µL enzyme reaction until the final concentration of DMSO was 1% in all of reactions. The enzymatic reactions were conducted at 30 °C for 40 min. The reaction mixture contained enzyme substrate and respective kinases. After the enzymatic reaction, 50 µL of enzyme-Glo Plus luminescence […] assay solution (Promega) was added to each reaction, and the plate was incubated for 5 min at room temperature. The luminescence signal was measured using a BioTek Synergy 2 microplate reader. The luminescence data were analyzed using the computer software GraphPad Prism. The difference between luminescence intensities in the absence of enzyme (Lut) and in the presence of enzyme (Luc) was defined as 100% activity (Lut − Luc). The values of enzyme activity percentages versus five concentrations of the small molecule were then plotted using a non-linear regression analysis of the sigmoidal dose–response curve. The IC50 value was determined using GraphPad Prism software. All experiments were repeated three times (Table S3).
Glo Plus luminescence kinase assay kits were used in these assays. The assay was done at Bioscience Laboratory BPS, California, USA. The assay measures kinase activity by quantitating the amount of ATP remaining in the solution following kinase reaction. The luminescent signal from the assay was correlated with the amount of ATP present and inversely correlated with kinase activity. […] All of the enzymatic reactions were conducted at 30 °C for 40 min. The reaction mixture contained 40 mM Tris, pH 7.4, 10 mM MgCl2, 0.1 mg/mL BSA, 1 mM DTT, 10 µM ATP, Kinase substrate, and VEGFR-2, EFGR, CDK-2 and CDK-4 enzymes. After the enzymatic reaction, 50 µL of Kinase-Glo Plus Luminescence kinase assay solution (Promega) was added to each reaction, and the plate was incubated for 5 min at room temperature. The luminescence signal was measured using a BioTek Synergy 2 microplate reader. Kinase activity assays were performed in triplicate for each concentration. The luminescence data were analyzed using the Graphpad Prism software.

[9] = test system: caspase 3/7; experiment: ELISA of caspase 3/7 in treated HepG-2 cells; type: cell-based, human; conditions: for increase of caspase 3/7 levels compared with untreated cells: HepG-2, compound at its IC50, 24 h; for Concentration of caspases 3/7: HepG-2, compound at its IC50, ± S.E.M, control 11.90±1.71
Description: as §1

[10] = biological target: T4, VEGFR-2 (Homo sapiens, UniProt P35968); experiment: Kinase-Glo Plus luminescence kinase inhibition assay, VEGFR-2; type: biochemical; conditions: 10 µM ATP, 30 °C, 40 min; mean ± SEM
T4 construct: purchased BPS Bioscience 40301
Description: as §2, §3, §4

T4 sequence (P35968 20-1356): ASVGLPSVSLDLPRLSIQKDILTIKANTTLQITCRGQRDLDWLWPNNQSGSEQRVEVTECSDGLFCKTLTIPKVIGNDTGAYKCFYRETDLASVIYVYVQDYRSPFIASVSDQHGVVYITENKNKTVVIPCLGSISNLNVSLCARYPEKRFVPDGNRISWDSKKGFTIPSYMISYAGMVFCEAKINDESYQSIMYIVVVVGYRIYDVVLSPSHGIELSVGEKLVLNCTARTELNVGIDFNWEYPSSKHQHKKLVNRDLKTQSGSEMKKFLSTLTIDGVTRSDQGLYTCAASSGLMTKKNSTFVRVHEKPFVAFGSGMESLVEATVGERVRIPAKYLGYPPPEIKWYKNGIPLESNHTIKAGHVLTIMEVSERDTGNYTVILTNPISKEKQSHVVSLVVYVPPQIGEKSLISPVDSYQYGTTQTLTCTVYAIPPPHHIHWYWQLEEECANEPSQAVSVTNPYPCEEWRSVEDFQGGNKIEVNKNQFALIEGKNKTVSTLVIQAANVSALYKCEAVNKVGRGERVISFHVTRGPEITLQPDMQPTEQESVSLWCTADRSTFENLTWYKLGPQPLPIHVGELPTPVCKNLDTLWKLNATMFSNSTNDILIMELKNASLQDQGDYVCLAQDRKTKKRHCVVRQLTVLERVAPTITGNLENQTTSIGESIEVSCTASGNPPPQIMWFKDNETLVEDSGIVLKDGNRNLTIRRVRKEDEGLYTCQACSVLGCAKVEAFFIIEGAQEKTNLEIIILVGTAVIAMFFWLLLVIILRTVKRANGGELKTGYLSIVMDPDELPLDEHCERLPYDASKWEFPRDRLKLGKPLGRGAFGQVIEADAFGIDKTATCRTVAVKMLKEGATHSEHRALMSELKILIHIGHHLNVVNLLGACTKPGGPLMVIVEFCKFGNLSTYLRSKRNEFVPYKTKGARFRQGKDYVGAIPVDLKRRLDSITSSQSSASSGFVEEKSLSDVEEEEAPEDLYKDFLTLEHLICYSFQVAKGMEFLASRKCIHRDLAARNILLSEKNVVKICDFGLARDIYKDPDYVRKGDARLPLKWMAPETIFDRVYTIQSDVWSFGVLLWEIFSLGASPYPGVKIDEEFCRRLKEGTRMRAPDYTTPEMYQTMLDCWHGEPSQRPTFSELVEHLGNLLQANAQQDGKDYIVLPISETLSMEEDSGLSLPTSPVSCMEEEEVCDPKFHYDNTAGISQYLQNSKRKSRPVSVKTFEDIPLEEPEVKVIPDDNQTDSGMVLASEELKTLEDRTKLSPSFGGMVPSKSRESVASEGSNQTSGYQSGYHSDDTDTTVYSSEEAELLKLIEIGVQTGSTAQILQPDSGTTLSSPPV
T1 sequence (P11802 whole entry): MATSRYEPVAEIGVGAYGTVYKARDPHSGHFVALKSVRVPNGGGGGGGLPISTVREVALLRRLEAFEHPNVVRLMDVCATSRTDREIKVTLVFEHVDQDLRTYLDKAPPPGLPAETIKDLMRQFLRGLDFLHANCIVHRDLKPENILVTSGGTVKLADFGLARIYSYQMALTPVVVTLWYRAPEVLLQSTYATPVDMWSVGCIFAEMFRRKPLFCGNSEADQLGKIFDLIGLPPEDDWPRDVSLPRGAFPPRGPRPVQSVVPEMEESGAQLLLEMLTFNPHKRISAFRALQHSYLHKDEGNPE
T1 sequence (P30281 whole entry partner): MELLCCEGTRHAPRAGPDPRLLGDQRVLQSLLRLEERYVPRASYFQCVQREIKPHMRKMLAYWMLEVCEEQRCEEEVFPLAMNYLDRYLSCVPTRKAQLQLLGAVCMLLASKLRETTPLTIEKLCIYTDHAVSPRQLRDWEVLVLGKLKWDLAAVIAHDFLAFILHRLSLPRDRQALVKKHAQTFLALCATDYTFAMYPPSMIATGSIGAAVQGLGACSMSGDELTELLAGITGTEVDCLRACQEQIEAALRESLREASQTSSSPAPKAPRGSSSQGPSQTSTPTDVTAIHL
T2 sequence (P00533 25-1210): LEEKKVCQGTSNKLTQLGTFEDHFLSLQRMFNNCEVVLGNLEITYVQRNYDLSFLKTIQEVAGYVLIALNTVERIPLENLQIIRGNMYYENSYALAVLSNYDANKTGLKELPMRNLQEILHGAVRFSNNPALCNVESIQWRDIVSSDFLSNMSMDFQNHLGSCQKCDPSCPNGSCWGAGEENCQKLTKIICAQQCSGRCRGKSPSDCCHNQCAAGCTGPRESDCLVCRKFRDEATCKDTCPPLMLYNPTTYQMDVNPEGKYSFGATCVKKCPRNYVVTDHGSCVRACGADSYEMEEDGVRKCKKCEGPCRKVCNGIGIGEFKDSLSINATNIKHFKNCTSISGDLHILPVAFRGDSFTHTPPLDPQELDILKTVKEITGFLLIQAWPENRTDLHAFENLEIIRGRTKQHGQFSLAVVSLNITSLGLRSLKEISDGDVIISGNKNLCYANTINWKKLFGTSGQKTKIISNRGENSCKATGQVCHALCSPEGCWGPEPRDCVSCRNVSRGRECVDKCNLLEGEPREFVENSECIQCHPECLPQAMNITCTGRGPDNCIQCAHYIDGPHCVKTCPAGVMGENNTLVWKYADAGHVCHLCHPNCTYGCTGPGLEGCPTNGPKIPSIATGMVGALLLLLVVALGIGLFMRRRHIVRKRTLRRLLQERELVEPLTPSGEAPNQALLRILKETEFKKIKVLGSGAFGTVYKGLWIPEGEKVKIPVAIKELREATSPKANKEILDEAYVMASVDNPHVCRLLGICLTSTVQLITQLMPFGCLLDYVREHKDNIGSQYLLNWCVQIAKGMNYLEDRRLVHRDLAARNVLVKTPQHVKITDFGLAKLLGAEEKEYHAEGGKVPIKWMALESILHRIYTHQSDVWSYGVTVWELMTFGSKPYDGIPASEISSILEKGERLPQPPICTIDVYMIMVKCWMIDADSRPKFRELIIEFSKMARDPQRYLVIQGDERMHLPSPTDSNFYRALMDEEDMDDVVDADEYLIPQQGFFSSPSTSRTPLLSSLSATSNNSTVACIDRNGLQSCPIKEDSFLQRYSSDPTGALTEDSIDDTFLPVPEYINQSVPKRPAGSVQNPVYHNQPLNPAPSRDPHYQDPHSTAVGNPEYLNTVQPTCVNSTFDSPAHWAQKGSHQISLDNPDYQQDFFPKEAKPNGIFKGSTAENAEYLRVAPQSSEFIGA

O=C1Nc2ccc(Cl)cc2C1=Nc1ccc2nc[nH]c(=O)c2c1 [Compound 9, 6-(5-Chloro-2-oxo-1,2-dihydro-indol-3-ylideneamino)-3H-quinazolin-4-one]
increase of Fas-L expression compared to untreated control [1]: 5.7 fold
Concentration of Fas L [1]: 86.11 ± 8.05 pg/mL
IC50 [2]: 36.4 ± 4.52 nM
upregulation of p53 expression compared to untreated cells [3]: 6.7 fold
Concentration of p53 [3]: 325.11 ± 29.55 pg/mL
IC50 [4]: 87.5 ± 6.71 nM
Concentration of Bcl-2 [5]: 90.15 ± 8.27 pg/mL
Cell cycle distribution (%) G0-G1 [6]: 67.16%
Cell cycle distribution (%) G2-M [6]: 20.75%
Cell cycle distribution (%) S [6]: 32.03%
Cell cycle distribution (%) sub-G0/G1 [6]: 13.82%
Concentration of Bax [7]: 88.12 ± 5.27 pg/mL
IC50 [8]: 9.39 ± 0.51 nM
fold higher inhibitory effect than indirubin against CDK-2 ([8]; relative to indirubin): 4.8 fold
increase of caspase 3/7 levels compared with untreated cells [9]: 5.3 fold
Concentration of caspases 3/7 [9]: 62.13 ± 5.27 pg/mL
IC50 [10]: 56.7 ± 4.3 nM

O=C1Nc2ccc(Cl)cc2C1=Nc1ccc(-c2nc3ccccc3c(=O)[nH]2)cc1 [Compound 20, 2-[4-(5-Chloro-2-oxo-1,2-dihydro-indol-3-ylideneamino)-phenyl]-3H-quinazolin-4-one]
increase of Fas-L expression compared to untreated control [1]: 4.1 fold
Concentration of Fas L [1]: 62.06 ± 4.62 pg/mL
IC50 [2]: 244 ± 12.2 nM
upregulation of p53 expression compared to untreated cells [3]: 2.65 fold
Concentration of p53 [3]: 127.43 ± 9.43 pg/mL
IC50 [4]: 32.7 ± 1.61 nM
Concentration of Bcl-2 [5]: 160.32 ± 10.82 pg/mL
Cell cycle distribution (%) G0-G1 [6]: 60.3%
Cell cycle distribution (%) G2-M [6]: 2.86%
Cell cycle distribution (%) S [6]: 16.27%
Cell cycle distribution (%) sub-G0/G1 [6]: 10.59%
Concentration of Bax [7]: 108.32 ± 9.82 pg/mL
IC50 [8]: 225 ± 12.6 nM
increase of caspase 3/7 levels compared with untreated cells [9]: 3.2 fold
Concentration of caspases 3/7 [9]: 37.32 ± 4.82 pg/mL
IC50 [10]: 14.3 ± 2.7 nM
